How the values were obtained:
[1] = molecular target: T1, G2019S-LRRK2 (recombinant GST-LRRK2 delta970) (Homo sapiens, UniProt Q5S007, G2019S); experiment: LRRK2 kinase assay, G2019S mutant (32P radiometric, peptide substrate); assay type: biochemical; settings: G2019S-LRRK2 30 nM, ATP ~52 μM (Km), 30 min at 30° C.
T1 construct: Recombinant GST-LRRK2 (delta970); GST (N); host or cells: baculovirus-infected Sf9 insect cells
Method: (§1) Compounds were assessed for inhibition of LRRK2 inhibition using the following procedure. Recombinant GST-LRRK2 (delta970) purified from baculovirus infected insect cells (SF9), at least 90% pure and either wild-type sequence or bearing the pathogenic G2019S mutation, was combined into a kinase buffer at 30 nM concentration. Kinase buffer consists of 50 mM Tris HCl pH 7.4, 1 mM EDTA, and 50 μM peptide substrate (amino acid sequence […]). Experimental compounds or control (no compound) were added at desired concentrations in DMSO and water, where final concentration of DMSO in kinase reactions was 0.1% for all drug concentrations. […] Reactions were incubated at 1400 RPM at 30° C. for 30 min. and then spotted in triplicate directly onto a slot-blot apparatus fitted with phospho-cellulose paper and allowed to dry. Each slot was then washed with 10 mM phosphoric acid buffer until beta-radiation could not be detected in eluted wash buffer, usually ˜1 mL per slot. Paper within each slot were excised and radiation measured by liquid scintillation.

[2] = molecular target: T2, WT-LRRK2 (recombinant GST-LRRK2 delta970) (Homo sapiens, UniProt Q5S007); experiment: LRRK2 kinase assay, wild type (32P radiometric, peptide substrate); assay type: biochemical; settings: WT-LRRK2 30 nM, ATP ~92 μM (Km), 30 min at 30° C.
T2 construct: Recombinant GST-LRRK2 (delta970); GST (N); host or cells: baculovirus-infected Sf9 insect cells
Method: as §1

T1 sequence (Q5S007 970-2527 G2019S limits assumed): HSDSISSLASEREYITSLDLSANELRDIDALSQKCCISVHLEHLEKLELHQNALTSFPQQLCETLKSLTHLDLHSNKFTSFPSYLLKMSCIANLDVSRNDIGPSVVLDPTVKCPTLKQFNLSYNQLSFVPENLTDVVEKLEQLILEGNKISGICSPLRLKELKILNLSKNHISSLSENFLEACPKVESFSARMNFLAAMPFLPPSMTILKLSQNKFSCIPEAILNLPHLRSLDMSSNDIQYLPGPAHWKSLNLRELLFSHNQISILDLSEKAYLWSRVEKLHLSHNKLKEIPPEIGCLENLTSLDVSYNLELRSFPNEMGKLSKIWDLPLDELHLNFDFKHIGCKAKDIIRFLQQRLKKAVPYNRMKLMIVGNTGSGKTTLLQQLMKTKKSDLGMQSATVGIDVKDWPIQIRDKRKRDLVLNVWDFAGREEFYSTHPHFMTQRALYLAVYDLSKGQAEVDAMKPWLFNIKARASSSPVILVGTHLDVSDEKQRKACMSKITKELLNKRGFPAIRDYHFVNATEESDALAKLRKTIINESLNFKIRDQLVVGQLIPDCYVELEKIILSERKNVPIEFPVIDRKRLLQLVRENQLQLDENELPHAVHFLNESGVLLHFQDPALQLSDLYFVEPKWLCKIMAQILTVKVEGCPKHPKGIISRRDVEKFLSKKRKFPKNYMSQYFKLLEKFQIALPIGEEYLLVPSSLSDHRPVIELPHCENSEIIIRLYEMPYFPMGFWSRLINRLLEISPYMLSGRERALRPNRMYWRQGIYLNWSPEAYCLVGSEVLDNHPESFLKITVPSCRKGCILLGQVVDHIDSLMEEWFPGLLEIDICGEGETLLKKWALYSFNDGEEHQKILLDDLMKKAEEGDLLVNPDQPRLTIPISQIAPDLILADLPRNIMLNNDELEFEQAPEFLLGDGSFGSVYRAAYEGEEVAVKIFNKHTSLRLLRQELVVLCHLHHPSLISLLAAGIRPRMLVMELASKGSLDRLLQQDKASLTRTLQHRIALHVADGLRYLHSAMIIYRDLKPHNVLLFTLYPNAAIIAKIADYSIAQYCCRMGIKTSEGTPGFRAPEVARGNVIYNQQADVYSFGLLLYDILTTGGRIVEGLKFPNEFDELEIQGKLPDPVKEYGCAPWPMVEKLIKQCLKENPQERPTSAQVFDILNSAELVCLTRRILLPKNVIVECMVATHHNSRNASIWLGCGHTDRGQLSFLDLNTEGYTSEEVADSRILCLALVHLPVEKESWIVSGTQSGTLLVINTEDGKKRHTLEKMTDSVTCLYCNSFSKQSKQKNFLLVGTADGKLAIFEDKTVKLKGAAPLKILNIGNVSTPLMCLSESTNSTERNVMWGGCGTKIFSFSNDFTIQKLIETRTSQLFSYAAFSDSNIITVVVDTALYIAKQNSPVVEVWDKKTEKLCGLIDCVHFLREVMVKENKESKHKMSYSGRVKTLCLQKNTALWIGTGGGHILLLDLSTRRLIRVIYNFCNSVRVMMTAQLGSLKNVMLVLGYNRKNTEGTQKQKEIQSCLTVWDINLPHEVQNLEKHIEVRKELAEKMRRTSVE
T2 sequence (Q5S007 970-2527 limits assumed): as the sequence (Q5S007 970-2527 G2019S limits assumed) above, with S1050G counted along it

## CNC(=O)C(C)n1cc(Nc2nc(N[C@@H](C)C3CC3)c3cc[nH]c3n2)c(Cl)n1 (stereo partly drawn) [Compound 46, 2-(3-chloro-4-((4-(((S)-1-cyclopropylethyl)amino)-7H-pyrrolo[2,3-d]pyrimidin-2-yl)amino)-1H-pyrazol-1-yl)-N-methylpropanamide]
[1]
  IC50: 0.017 µM
[2]
  IC50: 0.012 µM
